Assays:
CDK2/Cyclin E1 = CDK2/Cyclin E1 (Homo sapiens, UniProt P24941); test: Caliper LabChip EZ Reader mobility shift assay; type: biochemical; details: 2.5 nM CDK2/Cyclin E1(14-475), 100 μM ATP, 30 min preincubation; read-out: Caliper Assay (CDK2/CCNE1): IC50
Protocol: Inhibition of CDK2/Cyclin E1 activity in the presence of compounds of the present disclosure was evaluated using a Caliper LabChip® EZ Reader mobility shift assay. In the assay, activated CDK2/Cyclin E1 catalyzes the phosphorylation of a fluorescently tagged peptide 5-FAM-QSPKKG-CONH2 (PerkinElmer, FL Peptide 18) which induces a difference in capillary electrophoresis mobility. The peptide substrate and product were measured, and the conversion ratio was used to determine the inhibition (as % activity and IC50 values) of CDK2/Cyclin E1. Reactions contained 50 mM HEPES pH 7.5, 10 mM MgCl2, 1 mM EDTA, 2 mM DTT, 0.01% Brij35, 0.5 mg/mL BSA, 0.1% DMSO, 2.5 nM CDK2/Cyclin E1(14-475), 100 μM ATP, and 1.5 μM fluorescent peptide substrate.
Dose titrations of inhibitors in 100% DMSO were combined with 3.25 nM CDK2/Cyclin E1(14-475) and 130 μM of ATP in reaction buffer. The mixtures were incubated for 30 minutes before the addition of fluorescent peptide substrate to initiate the kinase reaction. The final conditions were 2.5 nM CDK2/Cyclin E1(14-475), 100 μM ATP, and 1.5 μM fluorescent peptide. The reactions were stopped after 100 minutes with the addition of EDTA (6 mM final EDTA concentration). The stopped reactions were analyzed on a Caliper LabChip® EZ Reader 11. The conversion ratios were normalized to yield % activity, plotted against compound concentration, and fit to a four-parameter equation to determine the IC50 for each compound.

Kuramochi cells RB-WT = test: IncuCyte Kuramochi cell proliferation assay, RB-WT; type: cell-based; details: 72 hours, cell count
Outline: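 GI50 was derived by curve-fitting DMSO-normalized fold change in nuclear count between 0 and 72 h. Counts came from images of Kuramochi cells carrying mApple-H2B. Compounds were dosed over 10 points at 1/2-log spacing from a 20 µM top concentration.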

| Compound | IC50 (CDK2/Cyclin E1) [µM] | IC50 (Kuramochi cells RB-WT) [µM] |
| --- | --- | --- |
| CC1(C)C[C@@H]1C(=O)N1CC2(CN(C(=O)c3cncs3)C[C@H]2COc2cccc3c(C4CCOCC4)cccc23)C1 [Compound I-22, ((S)-2-((S)-2,2-dimethylcyclopropane-1-carbonyl)-8-(((5-(tetrahydro-2H-pyran-4-yl)naphthalen-1-yl)oxy)methyl)-2,6-diazaspiro[3.4]octan-6-yl)(thiazol-5-yl)methanone] | 0.1 to 1 | > 10 |
| CC1(C)C[C@@H]1C(=O)N1CC2(CN(C(=O)c3cncs3)C[C@@H]2COCc2cccc(C3CCOCC3)n2)C1 [Compound I-64, ((R)-2-((S)-2,2-dimethylcyclopropane-1-carbonyl)-8-(((6-(tetrahydro-2H-pyran-4-yl)pyridin-2-yl)methoxy)methyl)-2,6-diazaspiro[3.4]octan-6-yl)(thiazol-5-yl) methanone] | 1 to 10 | > 10 |
| CC1(C)C[C@@H]1C(=O)N1CC2(CN(C(=O)c3cncs3)C[C@H]2COCc2cncc(C3CCOCC3)c2)C1 [Compound I-42, ((S)-2-((S)-2,2-dimethylcyclopropane-1-carbonyl)-8-(((5-(tetrahydro-2H-pyran-4-yl)pyridin-3-yl)methoxy)methyl)-2,6-diazaspiro[3.4]octan-6-yl)(thiazol-5-yl)methanone] | 1 to 10 | > 10 |
| CC1(C)C[C@@H]1C(=O)N1CC2(CN(C(=O)c3cncs3)C[C@H]2COc2cccc3ccc(C4CCOCC4)nc23)C1 [Compound I-30, ((S)-2-((S)-2,2-dimethylcyclopropanecarbonyl)-8-(((2-(tetrahydro-2H-pyran-4-yl)quinolin-8-yl)oxy)methyl)-2,6-diazaspiro[3.4]octan-6-yl)(thiazol-5-yl)methanone] | 1 to 10 | > 10 |
| CC1(C)C[C@@H]1C(=O)N1CC2(CN(C(=O)c3cncs3)C[C@H]2COC(COC2CCC(F)(F)CC2)c2cccc(C3CCOCC3)n2)C1 (stereo partly drawn) [Compound I-13, ((8S)-8-((2-((4,4-difluorocyclohexyl)oxy)-1-(6-(tetrahydro-2H-pyran-4-yl)pyridin-2-yl)ethoxy)methyl)-2-((S)-2,2-dimethylcyclopropane-1-carbonyl)-2,6-diazaspiro[3.4]octan-6-yl)(thiazol-5-yl)methanone] | 0.1 to 1 | > 10 |
| CC1(C)C[C@@H]1C(=O)N1CC2(CN(C(=O)c3cncs3)C[C@H]2COCc2cccc(-c3cccnc3)n2)C1 [Compound I-20, ((S)-8-(([2,3′-bipyridin]-6-ylmethoxy)methyl)-2-((S)-2,2-dimethylcyclopropane-1-carbonyl)-2,6-diazaspiro[3.4]octan-6-yl)(thiazol-5-yl)methanone] | 0.1 to 1 | > 10 |
| CC1(C)C[C@@H]1C(=O)N1CC2(CN(C(=O)c3cncs3)CC2COCc2cccc(C3=CCOCC3)n2)C1 (stereo partly shown) [Compound I-48] | 1 to 10 | > 10 |
| CC1(C)C[C@@H]1C(=O)N1CC2(CN(C(=O)c3cncs3)C[C@H]2COCc2ccc(Cl)c(Cl)c2)C1 [Compound I-40, ((S)-8-(((3,4-dichlorobenzyl)oxy)methyl)-2-((S)-2,2-dimethylcyclopropanecarbonyl)-2,6-diazaspiro[3.4]octan-6-yl)(thiazol-5-yl)methanone] | 1 to 10 | > 10 |
| CC1(C)C[C@@H]1C(=O)N1CC2(CN(C(=O)c3cncs3)C[C@H]2COCc2cc(C3CCOCC3)ccn2)C1 [Compound I-43, ((S)-2-((S)-2,2-dimethylcyclopropane-1-carbonyl)-8-(((4-(tetrahydro-2H-pyran-4-yl)pyridin-2-yl)methoxy)methyl)-2,6-diazaspiro[3.4]octan-6-yl)(thiazol-5-yl)methanone] | 1 to 10 | > 10 |
| CC1(C)C[C@@H]1C(=O)N1CC2(CN(C(=O)c3cncs3)C[C@H]2COCc2cc3ccccc3c(C3CCOCC3)n2)C1 [Compound I-28, ((S)-2-((S)-2,2-dimethylcyclopropane-1-carbonyl)-8-(((1-(tetrahydro-2H-pyran-4-yl)isoquinolin-3-yl)methoxy)methyl)-2,6-diazaspiro[3.4]octan-6-yl)(thiazol-5-yl)methanone] | 0.1 to 1 | > 10 |
| CC1(C)C[C@@H]1C(=O)N1CC2(CN(C(=O)c3cncs3)C[C@H]2COCc2ccnc(C3CCOCC3)c2)C1 [Compound I-45, ((S)-2-((S)-2,2-dimethylcyclopropane-1-carbonyl)-8-(((2-(tetrahydro-2H-pyran-4-yl)pyridin-4-yl)methoxy)methyl)-2,6-diazaspiro[3.4]octan-6-yl)(thiazol-5-yl)methanone] | > 10 | > 10 |
| CN(Cc1cccc(C2CCOCC2)n1)C[C@@H]1CN(C(=O)c2cncs2)CC12CN(C(=O)[C@H]1CC1(C)C)C2 [Compound I-26, (2-((S)-2,2-dimethylcyclopropanecarbonyl)-8-((methyl((6-(tetrahydro-2H-pyran-4-yl)pyridin-2-yl)methyl)amino)methyl)-2,6-diazaspiro[3.4]octan-6-yl)(thiazol-5-yl) methanone] | > 10 | > 10 |
| CC1(C)C[C@@H]1C(=O)N1CC2(CN(C(=O)c3cncs3)C[C@H]2COCc2ccnn2C2CCCC2)C1 [Compound I-37, ((S)-8-(((1-cyclopentyl-1H-pyrazol-5-yl)methoxy)methyl)-2-((S)-2,2-dimethylcyclopropanecarbonyl)-2,6-diazaspiro[3.4]octan-6-yl)(thiazol-5-yl)methanone] | > 10 | > 10 |

The next lines start with results.

| IC50 (CDK2/Cyclin E1) [µM] | Compound | IC50 (Kuramochi cells RB-WT) [µM] |
| --- | --- | --- |
| > 10 | O=C(c1cncs1)N1C[C@@H](COCc2cccc(-c3ccc(C(F)(F)F)cc3)n2)C2(CN(CC3COC3)C2)C1 [Compound I-15, (S)-(2-(oxetan-3-ylmethyl)-8-(((6-(4-(trifluoromethyl)phenyl)pyridin-2-yl)methoxy)methyl)-2,6-diazaspiro[3.4]octan-6-yl)(thiazol-5-yl)methanone] | > 10 |
| > 10 | O=C(c1cncs1)N1C[C@@H](COCc2cccc(-c3ccc(C(F)(F)F)cc3)n2)C2(CN(CC3CCCO3)C2)C1 (stereo partly drawn) [Compound I-11, ((8S)-2-((Tetrahydrofuran-2-yl)methyl)-8-(((6-(4-(trifluoromethyl)phenyl)pyridin-2-yl)methoxy)methyl)-2,6-diazaspiro[3.4]octan-6-yl)(thiazol-5-yl)methanone] | > 10 |
| > 10 | CC1(C)C[C@@H]1C(=O)N1CC2(CN(Cc3cnccn3)C[C@H]2COCc2cccc(-c3ccc(C(F)(F)F)cc3)n2)C1 [Compound I-19, ((S)-2,2-dimethylcyclopropyl)((S)-6-(pyrazin-2-ylmethyl)-8-(((6-(4-(trifluoromethyl)phenyl)pyridin-2-yl)methoxy)methyl)-2,6-diazaspiro[3.4]octan-2-yl) methanone] | > 10 |
| > 10 | O=C([C@H]1CC1(F)F)N1CC2(CN(Cc3cncs3)C[C@H]2COCc2cccc(-c3ccc(C(F)(F)F)cc3)n2)C1 [Compound I-12, ((R)-2,2-difluorocyclopropyl)((S)-6-(thiazol-5-ylmethyl)-8-(((6-(4-(trifluoromethyl)phenyl)pyridin-2-yl)methoxy)methyl)-2,6-diazaspiro[3.4]octan-2-yl)methanone] | > 10 |
| > 10 | CC(C)(C)CN1CC2(C1)CN(C(=O)c1cnccn1)C[C@H]2COCc1cccc(-c2ccc(C(F)(F)F)cc2)n1 [Compound I-17, (S)-(2-neopentyl-8-(((6-(4-(trifluoromethyl)phenyl)pyridin-2-yl)methoxy)methyl)-2,6-diazaspiro[3.4]octan-6-yl)(pyrazin-2-yl)methanone] | > 10 |
| 0.01 to 0.1 | CC1(C)C[C@@H]1C(=O)N1CC2(CN(C(=O)c3cnccn3)C[C@H]2COCc2cccc(-c3ccc(C(F)(F)F)cc3)n2)C1 [Compound I-18, ((S)-2-((S)-2,2-dimethylcyclopropane-1-carbonyl)-8-(((6-(4-(trifluoromethyl)phenyl)pyridin-2-yl)methoxy)methyl)-2,6-diazaspiro[3.4]octan-6-yl) (pyrazin-2-yl)methanone] | > 10 |
| > 10 | O=C(c1cncs1)N1C[C@@H](COCc2cccc(-c3ccc(C4CC4)cc3)n2)C2(CN(CC3CCCO3)C2)C1 (stereo partly drawn) [Compound I-8, ((8S)-8-(((6-(4-cyclopropylphenyl)pyridin-2-yl)methoxy)methyl)-2-((tetrahydrofuran-2-yl)methyl)-2,6-diazaspiro[3.4]octan-6-yl)(thiazol-5-yl)methanone] | > 10 |

Reference: patent US20260034123A1 (Cedilla Therapeutics, Inc., priority 2022, published 2026)
